Data published in patent US20260109707A1, “HETEROBIFUNCTIONAL COMPOUNDS AND METHODS OF TREATING DISEASE” (Halda Therapeutics OpCo. Inc., priority 2022, published 2026).
Read-outs that look alike come from different tables or passages of the source.

Columns and labels:
[1] = tested on: T-Rex 293 cell line SC3 cells lacking increased expression of androgen receptor protein; test: Cellular growth inhibition assay, T-Rex 293 SC3 cells without doxycycline (CellTiter-Glo, 72 hours); format: cell-based; conditions: T-Rex 293 cell line SC3 cells not exposed to doxycycline (lacking increased androgen receptor expression)
In short: (§1)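 Doxycycline (10 ng/mL) was either included or omitted to toggle wild-type androgen receptor expression in SC3 cells, a T-Rex 293 clone, grown in stripped-serum, phenol red-free medium. After 72 hours with compound, viable cells were quantified by CellTiter-Glo 2.0.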

[2] = tested on: T-Rex 293 cell line SC3 cells having increased expression of androgen receptor protein due to exposure to doxycycline; test: Cellular growth inhibition assay, T-Rex 293 SC3 cells with doxycycline (CellTiter-Glo, 72 hours); format: cell-based; conditions: T-Rex 293 SC3 cells with increased androgen receptor expression due to doxycycline (10 ng/mL)
In short: as §1

T47D cells = test: Cellular growth inhibition assay for T47D cells (CellTiter-Glo, 72 hours); format: cell-based, human; conditions: 72 hours treatment
Experimental: T47D cells were purchased from American Type Cell Culture (ATCC Cat #HTB-133) and then seeded on poly-D-lysine coated, black clear-bottom 384-well plates at 3000/well in 25 μL Dulbecco's Modified Eagle Medium (DMEM) supplemented with 10% w/w Fetal bovine serum (FBS), 0.2 units/mL recombinant human insulin (Gibco Cat #12585014), and 1% w/w Pen-Strep. Pen-Strep is a commercially available mixture of penicillin G and streptomycin, which is used in mammalian cell culture media to prevent bacterial contamination. Dulbecco's Modified Eagle Medium (DMEM) supplemented with 10% w/w fetal bovine serum (FBS), 0.2 units/mL recombinant human insulin, and 1% w/w Pen-Strep is herein referred to as Treatment Medium. Following seeding of cells in the plates, the plates were spun at 300×g for 30 seconds, then equilibrated to room temperature for 30 minutes, and then deposited in a humidified tissue culture incubator maintained at 37° C. with 5% CO2.
At 24 hours after seeding of the cells, dilutions of test compound were prepared in DMSO and dissolved in Treatment Medium, to achieve a final DMSO concentration of 0.5% w/w, thereby providing the Test Compound Solution. A 25 μL aliquot of the Test Compound Solution was added to cells in the well plates. An equal volume of a solution containing DMSO and Treatment Medium was used as a negative control. Following treatment of cells with Test Compound Solution or said equal volume of a solution containing DMSO and Treatment Medium, the plates were spun at 300×g for 30 seconds, and then left in an incubator for 72 hours.
At the end of the treatment duration, cell viability was quantified with CellTiter-Glo 2.0 reagent (Promega Cat #G9243). For this purpose, plates were equilibrated to room temperature for 30 minutes, and then 25 μL of CellTiter-Glo 2.0 reagent was added to cells in the plate wells. Plates were then agitated on a shaker for two minutes at 500 rpm and subsequently incubated at room temperature for 10 minutes. Following incubation, the plates were spun at 3000×g for 30 seconds, then sealed with an optical adhesive cover, and luminescence readings were measured with an EnVision Plate Reader (Perkin Elmer).
Data was normalized using zero luminescence for baseline. A four-parameter non-linear regression curve fit was applied to dose-response data in GraphPad Prism data analysis software to determine the half-maximal growth inhibitory concentration (GI50) for each test compound.

VCaP cells = test: Cellular growth inhibition assay for VCaP cells (CellTiter-Glo, 72 hours); format: cell-based, human
In short: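 Luminescent viability signal after 72 h of compound exposure gave GI50 values by four-parameter nonlinear regression. Compounds were added in 0.5% DMSO to cells plated 24 h earlier at 5000/well in DMEM containing 10% FBS.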

GI50 (T47D cells; Homo sapiens, T47D, 72 h) [nM]	GI50 (VCaP cells; Homo sapiens, VCaP, 72 h) [nM]	GI50 (T47D cells) [nM]	GI50 (VCaP cells) [nM]	SMILES	GI50 ([1]; 72 h) [nM]	GI50 ([2]; 72 h) [nM]	GI50 [1] [nM]	GI50 [2] [nM]
500 to 1500	500 to 1500	–	–	Cc1sc2c(c1C)C(c1ccc(O[C@H]3C[C@@]4(CCCN(c5ccc(C(=O)N[C@H]6CC[C@H](Oc7ccc(C#N)c(Cl)c7)CC6)nn5)C4)C3)cc1)=N[C@@H](C)c1nnc(C)n1-2 [I-349]	> 3000	< 500	–	–
< 500	< 500	–	–	Cc1sc2c(c1C)C(c1ccc(N3CCC4(CCCN(c5ccc(C(=O)N[C@H]6CC[C@H](Oc7ccc(C#N)c(Cl)c7)CC6)nn5)C4)CC3)cc1)=N[C@@H](Cc1ncco1)c1nnc(C)n1-2 [I-367]	< 500	< 500	–	–
–	–	< 500	< 500	Cc1sc2c(c1C)C(c1ccc(N3CCC4(CC3)CCN(c3ccc(C(=O)N[C@H]5CC[C@H](Oc6ccc(C#N)c(Cl)c6)CC5)nn3)C4)cc1)=N[C@@H](C)c1nnc(C)n1-2 [I-430]	–	–	< 500	< 500
< 500	< 500	–	–	Cc1sc2c(c1C)C(c1ccc([C@H]3C[C@H](C[C@@H]4CCCN(c5ccc(C(=O)N[C@H]6CC[C@H](Oc7ccc(C#N)c(Cl)c7)CC6)nn5)C4)C3)cc1)=N[C@@H](Cc1ncco1)c1nnc(C)n1-2 [I-357]	< 500	< 500	–	–
> 3000	< 500	–	–	Cc1sc2c(c1C)C(c1ccc(-c3ccc(C4CCN(c5ccc(C(=O)NC6CCC(Oc7ccc(C#N)c(Cl)c7)CC6)nn5)CC4)cc3)cc1)=N[C@@H](Cc1ncco1)c1nnc(C)n1-2 (some centres unmarked) [I-369]	> 3000	> 3000	–	–
> 3000	> 3000	–	–	Cc1sc2c(c1C)C(c1ccc(C(=O)N(C)CCCc3ccc(C(=O)N[C@H]4CC[C@H](Oc5ccc(C#N)c(Cl)c5)CC4)nn3)cc1)=N[C@@H](Cc1ncco1)c1nnc(C)n1-2 [I-320]	> 3000	> 3000	–	–
< 500	< 500	–	–	Cc1sc2c(c1C)C(c1ccc([C@H]3C[C@H](C4CCN(c5ccc(C(=O)N[C@H]6CC[C@H](Oc7ccc(C#N)c(Cl)c7)CC6)nn5)CC4)C3)cc1)=N[C@@H](Cc1ncco1)c1nnc(C)n1-2 [I-373]	> 3000	< 500	–	–
< 500	< 500	–	–	Cc1sc2c(c1C)C(c1ccc(CN3CCC4(CC3)CCN(c3ccc(C(=O)N[C@H]5CC[C@H](Oc6ccc(C#N)c(Cl)c6)CC5)nn3)CC4)cc1)=N[C@@H](Cc1ncco1)c1nnc(C)n1-2 [I-366]	< 500	< 500	–	–
> 3000	1500 to 3000	–	–	Cc1sc2c(c1C)C(c1ccc(N3CCC4(CCCN(c5ccc(C(=O)N[C@H]6CC[C@H](Oc7ccc(C#N)c(Cl)c7)CC6)nn5)C4)CC3)cc1)=NC1(CC1)c1nnc(C)n1-2 [I-398]	> 3000	< 500	–	–
< 500	< 500	–	–	CC1=NN=C2C1c1sc(C)c(C)c1C(c1ccc(C#CC3CCN(c4ccc(C(=O)N[C@H]5CC[C@H](Oc6ccc(C#N)c(Cl)c6)CC5)nn4)CC3)cc1)=N[C@H]2Cc1ncco1 (some centres unmarked) [I-394]	< 500	< 500	–	–
1500 to 3000	< 500	–	–	Cc1sc2c(c1C)C(c1ccc(C(=O)N(C)CCCc3ccc(C(=O)N[C@H]4CC[C@H](Oc5ccc(C#N)c(Cl)c5)CC4)nn3)cc1)=N[C@H](Cc1ncco1)c1nnc(C)n1-2 [I-321]	> 3000	< 500	–	–
> 3000	> 3000	–	–	Cc1sc2c(c1C)C(c1ccc(C[C@H]3C[C@]4(CCCN(c5ccc(C(=O)N[C@H]6CC[C@H](Oc7ccc(C#N)c(Cl)c7)CC6)nn5)C4)C3)nc1)=N[C@H](Cc1ncco1)c1nnc(C)n1-2 [I-384]	> 3000	> 3000	–	–

Second part, the compound before the results:

SMILES	GI50 (T47D cells; Homo sapiens, T47D, 72 h) [nM]	GI50 (VCaP cells; Homo sapiens, VCaP, 72 h) [nM]	GI50 (T47D cells) [nM]	GI50 (VCaP cells) [nM]	GI50 ([1]; 72 h) [nM]	GI50 ([2]; 72 h) [nM]	GI50 [1] [nM]	GI50 [2] [nM]
Cc1sc2c(c1C)C(c1ccc(C3CN(C4CCN(c5ccc(C(=O)N[C@H]6CC[C@H](Oc7ccc(C#N)c(Cl)c7)CC6)nn5)C4)C3)cc1)=N[C@@H](Cc1ncco1)c1nnc(C)n1-2 (some centres unmarked) [I-209]	< 500	< 500	–	–	< 500	< 500	–	–
Cc1sc2c(c1C)C(c1ccc(C(=O)N3CCC[C@@H](Cc4ccc(C(=O)N[C@H]5CC[C@H](Oc6ccc(C#N)c(Cl)c6)CC5)nn4)C3)cc1)=N[C@H](Cc1ncco1)c1nnc(C)n1-2 [I-275]	> 3000	> 3000	–	–	> 3000	< 500	–	–
Cc1sc2c(c1C)C(c1ccc(OC3CC4(CCN(c5ccc(C(=O)N[C@H]6CC[C@H](Oc7ccc(C#N)c(Cl)c7)CC6)nc5)CC4)C3)cc1)=N[C@@H](Cc1ncco1)c1nnc(C)n1-2 [I-89]	< 500	< 500	–	–	< 500	< 500	–	–
Cc1sc2c(c1C)C(c1ccc(CCO[C@@H]3CCCN(c4ccc(C(=O)N[C@H]5CC[C@H](Oc6ccc(C#N)c(Cl)c6)CC5)nn4)C3)cc1)=N[C@@H](Cc1ncco1)c1nnc(C)n1-2 [I-278]	< 500	< 500	–	–	> 3000	< 500	–	–
Cc1sc2c(c1C)C(c1ccc(CC3CN(CC4CCN(c5ccc(C(=O)N[C@H]6CC[C@H](Oc7ccc(C#N)c(Cl)c7)CC6)nn5)CC4)C3)cc1)=N[C@H](Cc1ncco1)c1nnc(C)n1-2 [I-114]	500 to 1500	500 to 1500	–	–	1500 to 3000	< 500	–	–
Cc1sc2c(c1C)C(c1ccc(CNC(=O)N3CCC(c4ccc(C(=O)N[C@H]5CC[C@H](Oc6ccc(C#N)c(Cl)c6)CC5)nn4)CC3)cc1)=N[C@@H](Cc1ncco1)c1nnc(C)n1-2 [I-228]	< 500	< 500	–	–	> 3000	< 500	–	–
CCNC(=O)C[C@@H]1N=C(c2ccc(N3CCC(CN4CCN(c5ccc(C(=O)N[C@H]6CC[C@H](Oc7ccc(C#N)c(Cl)c7)CC6)nn5)CC4)CC3)cc2)c2c(sc(C)c2C)-n2c(C)nnc21 [I-36]	500 to 1500	< 500	–	–	500 to 1500	< 500	–	–
Cc1sc2c(c1C)C(c1ccc(C[C@H]3C[C@]4(CCCN(c5ccc(C(=O)N[C@H]6CC[C@H](Oc7ccc(C#N)c(Cl)c7)CC6)nn5)C4)C3)cc1)=N[C@@H](Cc1ncco1)c1nnc(C)n1-2 [I-119]	< 500	< 500	–	–	< 500	< 500	–	–
Cc1sc2c(c1C)C(c1ccc(CCC[C@@H]3CCCN(c4ccc(C(=O)N[C@H]5CC[C@H](Oc6ccc(C#N)c(Cl)c6)CC5)nn4)C3)cc1)=N[C@@H](C)c1nnc(C)n1-2 [I-308]	500 to 1500	< 500	–	–	> 3000	< 500	–	–
Cc1sc2c(c1C)C(c1ccc(OCC[C@H]3CCCN(c4ccc(C(=O)N[C@H]5CC[C@H](Oc6ccc(C#N)c(Cl)c6)CC5)nn4)C3)cc1)=N[C@@H](Cc1ncco1)c1nnc(C)n1-2 [I-257]	< 500	< 500	–	–	< 500	< 500	–	–
Cc1sc2c(c1C)C(c1ccc(C3CN(C4CCN(c5ccc(C(=O)N[C@H]6CC[C@H](Oc7ccc(C#N)c(Cl)c7)CC6)nn5)CC4)C3)cc1)=N[C@@H](Cc1ncco1)c1nnc(C)n1-2 [I-212]	< 500	< 500	–	–	< 500	< 500	–	–
Cc1sc2c(c1C)C(c1ccc(O[C@@H]3CC[C@]4(CCCN(c5ccc(C(=O)N[C@H]6CC[C@H](Oc7ccc(C#N)c(Cl)c7)CC6)nn5)C4)C3)nc1)=N[C@@H](Cc1ncco1)c1nnc(C)n1-2 [I-286]	–	–	500 to 1500	< 500	–	–	> 3000	< 500
Cc1sc2c(c1C)C(c1ccc(C[C@H]3CC[C@@]4(C3)CN(c3ccc(C(=O)N[C@H]5CC[C@H](Oc6ccc(C#N)c(Cl)c6)CC5)nn3)CCO4)cc1)=N[C@@H](Cc1ncco1)c1nnc(C)n1-2 [I-267]	< 500	< 500	–	–	< 500	< 500	–	–
Cc1sc2c(c1C)C(c1ccc(OC[C@H]3C[C@@]4(CCCN(c5ccc(C(=O)N[C@H]6CC[C@H](Oc7ccc(C#N)c(Cl)c7)CC6)nn5)C4)C3)cc1)=N[C@@H](C)c1nnc(C)n1-2 [I-310]	500 to 1500	< 500	–	–	> 3000	< 500	–	–
